In US20040242476A1, “Male contraceptives” (The Population Council, Inc, priority 2001, published 2004):

Assays:
[1] = system: Sertoli cells; experiment: Trypan blue dye-exclusion cell viability test; type: cell-based, rat; conditions: peptide-treated cultures (data not shown)
[2] = system: spermatogenesis in adult rat testis; experiment: Intratesticular injection: testicular weight and histological analysis of the testis; type: in vivo
Experimental: Intratesticular injection of occludin peptide and histological analysis of the testis. To assess the in vivo effects of the occludin peptide on spermatogenesis, peptide was administered to testes of adult rats by direct intratesticular injection as follows. Peptide was suspended in 0.9% sterile saline, sterilized by exposure to UV for 5 minutes. […] First, UV treated peptide retained the same retention time on reverse-phase HPLC using a Vydac C18 column (4.6×250 mm, i.d.) (Cheng et al., 1998; Cheng et al., 1989) when compared to peptide prior to the UV treatment. Second, the primary sequence of the UV-trated peptide remain unaltered when direct protein microsequencing was performed as described (Mruk and Cheng, 1990; Cheng et al., 1998; Cheng et al., 1989). Adult rats weighing between 250 and 300 g body weight were anesthetized with Metofane® before treatment. Rats received either 300 μl of 0.9% sterile saline (vehicle control), no treatment (control), or 1.5-10 mg of occludin peptide suspended in 300 μl of 0.9% sterile saline intratesticularly. The right testis of an animal received the peptide or vehicle and the left testis of the same animal was not treated and was used as a control. Peptide or vehicle was administered at 3 sites/testis with about 100 μl sample per site essentially as previously described (Grima et al., 1998; Eng et al., 1994). In another control group, rats were injected with a synthetic 22-amino acid peptide of NH2—[…]—COOH based on a known Sertoli cell protein, rat myotubularin (rMTM) (Li et al., 2000; Li et al., 2001), which had no sequence homology with occludin. Three rats were used in each treatment group and rats were sacrificed by CO2 asphyxiation at specific time points. Testes were removed immediately and fixed in 10% neutral buffered formalin. Testes were embedded in paraffin, and dehydrated in graded ethanol. For morphological analysis, 5 μm sections were cut and stained with hematoxylin and eosin. About 50 sections were examined at different sites for each testis using an Olympus BX40 microscope (Tokyo, Japan), interfaced to an Olympus PM-30 Exposure Control Unit.
Following HPLC purification, occludin or myotubularin peptide was suspended in 0.9% sterile saline and sterilized under UV for 5 minutes. Each rat in the experimental group received an intratesticular injection of 300 μl of saline containing either 0.15 mg or 1.5 mg of the corresponding purified peptide. The peptide suspension was distributed in each testis at 3 sites (approximately […] per site) as described in Materials and Methods and detailed elsewhere (Grima et al., 1992; Eng et al., 1994). […] FIGS. 6D-F are another control set of testes where rats received an intratesticular injection of the myotubularin peptide at 10 (FIG. 6D), 23 (FIG. 6E), and 40 days (FIG. 6F) post-treatment.

[3] = Stability of peptide to UV sterilization (HPLC retention, microsequencing); type: physicochemical; conditions: UV 5 minutes, suspension in 0.9% saline
Experimental: Intratesticular injection of occludin peptide and histological analysis of the testis. To assess the in vivo effects of the occludin peptide on spermatogenesis, peptide was administered to testes of adult rats by direct intratesticular injection as follows. Peptide was suspended in 0.9% sterile saline, sterilized by exposure to UV for 5 minutes. […] First, UV treated peptide retained the same retention time on reverse-phase HPLC using a Vydac C18 column (4.6×250 mm, i.d.) (Cheng et al., 1998; Cheng et al., 1989) when compared to peptide prior to the UV treatment. Second, the primary sequence of the UV-trated peptide remain unaltered when direct protein microsequencing was performed as described (Mruk and Cheng, 1990; Cheng et al., 1998; Cheng et al., 1989). Adult rats weighing between 250 and 300 g body weight were anesthetized with Metofane® before treatment. Rats received either 300 μl of 0.9% sterile saline (vehicle control), no treatment (control), or 1.5-10 mg of occludin peptide suspended in 300 μl of 0.9% sterile saline intratesticularly. The right testis of an animal received the peptide or vehicle and the left testis of the same animal was not treated and was used as a control. Peptide or vehicle was administered at 3 sites/testis with about 100 μl sample per site essentially as previously described (Grima et al., 1998; Eng et al., 1994). […]

[4] = system: blood-testis barrier (BTB); experiment: Blood-testis barrier integrity by micropuncture, [125I]-BSA in STF and RTF; type: in vivo, rat; conditions: for effect on BTB integrity: intratesticular injection 1.5 mg/testis
Experimental: Assessing the occludin-peptide induced disruption of the blood-testis barrier (BTB) by micropuncture techniques.
Briefly, 5 μg of BSA (Sigma, RIA grade, Mr 68 kDa) was radioiodinated by Iodogen (Fraker et al., 1978) using 1 mCi of [^125I]-sodium iodide (Amersham Pharmacia Biotech) as described (Cheng et al., 1983).
Detection of [^125]-BSA in seminiferous tubular fluid (STF) and rete testis fluid (RTF). 2, 4, 6, and 12-week after an intratesticular administration of 1.5 mg of either occludin or myotubularin peptide/testis as described above (administered at 3 sites to the right testis) where the left testis of the same animal was used as a control. Rats (n=4-6 rats per time point, approximately 250 gm b.w. at the time of peptide treatment) were anesthetized with ketamine HCl (Fort Dodge Laboratories, Inc., Fort Dodge Iowa) at 60 mg/kg b.w. Micropuncture was performed essentially as described (Turner et al., 1984; Stahler et al., 1991). Briefly, testes were exposed through an abdominal incision, and the efferent ducts were ligated with surgical silk thread. Testes were then returned to the scrotum, wound cleansed with 70% ethanol, surgically closed and animals were allowed to recover. Twenty-four hours after efferent duct ligation, rats were anesthetized by ketamine HCl, bilateral nephrectomy was performed to prevent renal excretion of [^125I]-BSA, and approximately 6×10^6 cpm of [^125I]-BSA was infused into the rat via jugular vein. Two hours after infusion, testes were removed, RTF and STF were collected as described (Turner et al, 1984; Stahler et al., 1991) for radioactivity determination in a γ-counter. The left testis from the same animal without receiving either the occludin or myotubularin peptide served as a control, and both STF and RTF were also collected for radioactivity determination to assess the integrity of the BTB.

[5] = system: inter-Sertoli TJ-permeability barrier; experiment: Transepithelial electrical resistance (TER) across Sertoli cell epithelia; type: cell-based, rat
Experimental: Preparation of Sertoli cell cultures. Primary Sertoli cells were isolated from 20-day-old Sprague-Dawley rat testes as previously described (Cheng et al., 1986). For low cell density cultures, Sertoli cells were plated at 5×10^4 cells/cm^2 in 100-mm Petri dishes [approximately 4.5×10^6 cells/100-mm dish/9 ml Ham's F12 Nutrient Mixture/Dulbecco's Modified Eagle's Medium (F12/DMEM, 1:1, vol/vol, Life Technologies, Inc.); F12/DMEM were supplemented with 15 mM HEPES, 1.2 g/L sodium bicarbonate, 10 μg/ml bovine insulin, 5 μg/ml human transferrin, 2.5 ng/ml EGF, 20 mg/L gentamicin and 10 μg/ml bacitracin. Sertoli cells cultured under low cell density formed monolayer epithelia without the assembly of inter-Sertoli TJs when monitored by TER measurement (Grima et al., 1998). However, both adherens junctions (AJs) and gap junctions (GJs) were formed (Chung et al., 1999). For high cell density cultures, Sertoli cells were plated on Matrigel™ (Collaborative Biochemical Products, Belford, Mass.)-coated (diluted 1:7 with F12/DMEM, vol/vol) 24-well dishes (effective surface area, approximately 1.88 cm^2, with 2 ml F12/DMEM per well) at a density of 0.6-3×10^6 cells/cm^2 as previously described (Grima et al., 1998) to allow formation of TJs, AJs and GJs, mimicking Sertoli cells found in vivo when assessed by various criteria (Grima et al., 1992). Cell cultures were incubated in a humidified atmosphere of 95% air and 5% CO2 (vol/vol) at 35° C. and TER readings were recorded 24 hr later and designated as cultures at day 1.
Assessing the integrity of the inter-Sertoli TJ-permeability barrier by measuring the transepithelial electrical resistance (TER) across Sertoli cell epithelia To assess the effects of occludin peptide on the assembly of inter-Sertoli TJs, Sertoli cells isolated from 20-day-old rat testes were cultured at 1.2×10^6 cells/cm^2 to allow the assembly of inter-Sertoli TJs, and the TER, which is a quantitative measurement of TJ integrity, across the Sertoli cell epithelia was quantified as previously described (Wong et al., 2000; Grima et al. 1998). Cells were plated on Matrigel™ (1:7)-coated HA filters in the apical chamber (Millipore, Bedford, Mass.) (25, 28). Great care was taken so that air bubbles were not trapped between Sertoli cell aggregates, which is the major obstacle to obtain steady TER across the Sertoli cell epithelia since air bubbles create physical pores between adjacent Sertoli cells. TER across the Sertoli cell epithelia at specific time points was determined by a Millicell electrical resistance system as described (Grima et al., 1998; Cheng and Chung, 2001). The resistance in ohm was multiplied by the effective surface area of the bicameral unit (approximately 0.6 cm^2) to yield the area resistance (ohm.cm^2). The net value of electrical resistance was then computed by substracting the background, which was measured on the Matrigel-coated cell-free chambers, from values of Sertoli cell-plated chambers. To minimize temperature-induced fluctuations during TER measurement, cultures were stabilized at room temperature for 20-30 minutes prior to recording TER across the Sertoli cell epithelia. Synthetic occludin peptide at 0.2-4 μM was included in the basal (0.5 ml F12/DMEM containing 0.03% DMSO, vol/vol, DMSO was used to solubilize the peptide in medium) and apical (0.5 ml F12/DME containing 0.03% DMSO, vol/vol) chambers of the bicameral units 24 hours after freshly isolated Sertoli cells were plated onto Matrigel-coated units (day 1). […]

[6] = 1.5 mg/testis, 2, 4, 6 and 12 weeks, vs rats without peptide

Row | Substance | cell viability versus control cultures [1] | reduction of seminiferous tubular diameter ([2]; 27 days, compared to control, vehicle or myotubularin peptide testes) | time for almost full recovery of testes ([2]; 68 days versus 27 days post-treatment) | germ cell repopulation ([2]; after 27 days post treatment) | appearance of the testis and the epididymis ([2]; after intratesticular injection) | elongated spermatids in seminiferous epithelium ([2]; between 8 and 16 days after treatment) | germ cells in epithelium, virtually all tubules examined ([2]; by 27 days after intratesticular injection) | morphology of tubules ([2]; by 47 days post treatment) | morphology of the seminiferous epithelium ([2]; by 68 days post treatment) | testicular weight ([2]; within 2 weeks after intratesticular injection of 0.15 mg or 1.5 mg, vs no treatment, vehicle or myotubularin peptide (FIG. 5)) | effect of UV treatment on peptide structure [3] | effect on BTB integrity [4] | decline in TER compared to untreated controls ([5]; 4 μM, days 4-5) | toxicity to Sertoli cells ([5]; concluded from reversibility after peptide removal) | change in TER across Sertoli cell epithelia ([5]; peptide 0.2-4 μM added 24 hours after isolation, 1.2×10^6 cells/cm^2 (FIG. 4A)) | time until TER reading indistinguishable from controls after peptide removal (TJ barrier reassembly) ([5]; peptide removed on day 5 by two washes (FIG. 4B)) | radioactivity detected in RTF [4, 6] | radioactivity detected in STF [4, 6] | effects to perturb the inter-Sertoli TJ barrier ([5]; 4 μM (data not shown))
1 | H-GSQIYTICSQFYTPGGTGLYVD-OH [occludin peptide] | no apparent differences | 20-30% | ≤ 40 days | began to repopulate in the epithelium | appeared normal | began to deplete from the epithelium | Massive depletion of germ cells | spermatocytes were clearly visible in all the tubules examined | indistinguishable from control rats | reduction in testicular weight | did not alter its structure | disruption of the BTB | approximately 50% | non-toxic | dose-dependent decline in TER | 3 to 4 days | – | – | –
2 | NH2—TKVNERYELCDTYPALLAVPAN—COOH (H-TKVNERYELCDTYPALLAVPAN-OH) [myotubularin peptide] | – | – | – | – | – | – | – | – | – | – | – | failed to induce disruption of the BTB | – | – | – | – | indistinguishable from control rats | indistinguishable from control rats | no apparent effects
